Source: ChEMBL document CHEMBL4813915, “Deep learning enables discovery of highly potent anti-osteoporosis natural products” (Eur J Med Chem, 2021)

Columns and labels:
[1] = Inhibition of GST-tagged recombinant RANKL/M-CSF-induced osteoclastogenesis in C57BL/6 mouse bone marrow derived macrophages assessed as TRAcP enzymatic activity incubated for 5 days with subsequent replenishment of media for 2 days and measured by leucocyte acid phosphatase staining method; type: functional, tissue-based; settings: bmdm
BMDM [2] = assay: Inhibition of RANKL-induced osteoclastogenesis in C57BL/6 mouse bone marrow derived macrophages assessed as reduction in TRACP mRNA expression measured after 4 days by qRT-PCR method; type: functional, tissue-based; settings: dose 0.5-5 µM, time 4.0 day
BMDM [3] = assay: Inhibition of RANKL-induced osteoclastogenesis in C57BL/6 mouse bone marrow derived macrophages assessed as reduction in NFATC1 mRNA expression measured after 4 days by qRT-PCR method; type: functional, tissue-based; settings: dose 0.5-5 µM, time 4.0 day
BMDM [4] = assay: Inhibition of RANKL-induced osteoclastogenesis in C57BL/6 mouse bone marrow derived macrophages assessed as reduction in CTSK mRNA expression measured after 4 days by qRT-PCR method; type: functional, tissue-based; settings: dose 0.5-5 µM, time 4.0 day
[5] = Cytotoxicity against C57BL/6 mouse bone marrow measured after 48 hrs by CCK8 assay; type: tissue-based, BMDM; settings: mouse bone marrow cells
BMDM [6] = assay: Inhibition of RANKL-induced osteoclastogenesis in C57BL/6 mouse bone marrow derived macrophages assessed as reduction in RANK mRNA expression measured after 4 days by qRT-PCR method; type: functional, tissue-based; settings: dose 0.5-5 µM, time 4.0 day

`C=C1CC[C@@H]2[C@](C)(CO)[C@H](O)CC[C@@]2(C)[C@@H]1C/C=C1/C(=O)OC[C@H]1O` [ANDROGRAPHOLIDE] showed an IC50 ([1]; read-out: IC50) of 0.55 µM.

For `C[C@@H]1CC[C@@]2(OC1)O[C@H]1C[C@H]3[C@@H]4CC[C@H]5C[C@H](O)CC[C@]5(C)C4=CC[C@]3(C)[C@H]1[C@@H]2C`, the IC50 [1] was “Not Active”.

In the case of `COc1ccc2c(c1)CCN=C2Cc1ccc(OCc2ccccc2)c(OC)c1C`, the inhibition (BMDM [2]) is reported as “Dose-Dependent Effect”, the inhibition (BMDM [3]) is reported as “Dose-Dependent Effect” and the inhibition (BMDM [4]) is reported as “Dose-Dependent Effect”. For the same compound, the CC50 at 48 h [5] was 19.9 µM, the IC50 ([1]; read-out: IC50) was 0.068 µM and the inhibition (BMDM [6]) was “Dose-Dependent Effect”.

With `COc1ccc(C(=O)/C=C/c2ccccc2)c(O)c1` the IC50 [1] was “Not Active”.

For `COc1cc([C@H]2OC[C@H]3[C@@H]2CO[C@@H]3c2ccc(OC(C)=O)c(OC)c2)ccc1OC(C)=O`, the IC50 [1] was “Not Active”.

For `COc1ccc(C[C@H]2c3cc(OC)c(OC)cc3CCN2C)cc1OC`, the IC50 [1] was “Not Active”.

For `COc1cc2nc3occc3c(OC)c2cc1OC` [KOKUSAGININE], the IC50 ([1]; read-out: IC50) was 3.16 µM.

`CC(=O)[C@H]1CC[C@H]2[C@@H]3CC[C@H]4C[C@@H](OC(=O)Cc5ccc(C(=O)c6ccccc6)cc5)CC[C@]4(C)[C@H]3CC[C@]12C` gave an IC50 ([1]; read-out: IC50) of 1.73 µM.

For `COc1cc2c(cc1OC)C(Cc1ccc(OCc3ccccc3)c(OC)c1)=NCC2`, the inhibition (BMDM [2]) was “Dose-Dependent Effect”, the inhibition (BMDM [3]) was “Dose-Dependent Effect” and the inhibition (BMDM [4]) was “Dose-Dependent Effect”. For the same compound, the CC50 at 48 h [5] was 26.9 µM, the IC50 ([1]; read-out: IC50) was 0.032 µM and the inhibition (BMDM [6]) was “Dose-Dependent Effect”.

For `COc1c2cc3c(cc2nc2occc12)OCO3` [MACULINE], the IC50 [1] was “Not Active”.
